Results reported in ChEMBL document CHEMBL5352421, “Identification of novel piperazine-tethered phthalazines as selective CDK1 inhibitors endowed with in vitro anticancer activity toward the pancreatic cancer” (Eur J Med Chem, 2022).
pIC50: −log10 of the molar value.

Columns and labels:
[1] = system: A-375; experiment: Antiproliferative activity against human A-375 cells assessed as growth inhibition incubated at 10 uM for 24 hrs by MTT assay relative to control; format: functional; conditions: read-out: GI
[2] = system: G-361; experiment: Antiproliferative activity against human G-361 cells assessed as growth inhibition incubated at 10 uM for 24 hrs by MTT assay relative to control; format: functional; conditions: read-out: GI
[3] = target: Cyclin-dependent kinase 5 (Homo sapiens, UniProt Q00535); experiment: Inhibition of CDK5 (unknown origin) by FRET assay
Sequence of Cyclin-dependent kinase 5 (Q00535 whole entry): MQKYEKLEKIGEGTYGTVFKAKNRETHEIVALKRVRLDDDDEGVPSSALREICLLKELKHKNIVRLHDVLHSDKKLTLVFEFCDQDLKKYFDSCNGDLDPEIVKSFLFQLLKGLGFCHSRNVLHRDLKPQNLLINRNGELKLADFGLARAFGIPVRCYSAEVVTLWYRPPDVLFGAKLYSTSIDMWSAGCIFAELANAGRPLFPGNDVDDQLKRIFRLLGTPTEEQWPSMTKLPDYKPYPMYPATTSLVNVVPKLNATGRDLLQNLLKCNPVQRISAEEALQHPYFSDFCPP

[4] = target: Fibroblast growth factor receptor (Homo sapiens, UniProt P22607+P11362+P22455+P21802); experiment: Inhibition of FGFR (unknown origin) by FRET assay; format: protein assay
[5] = system: HT-29; experiment: Antiproliferative activity against human HT-29 cells assessed as growth inhibition incubated at 10 uM for 24 hrs by MTT assay relative to control; format: functional; conditions: read-out: GI
[6] = Antiproliferative activity against human PL45 cells assessed as growth inhibition incubated at 10 uM for 24 hrs by MTT assay relative to control; format: functional; conditions: read-out: GI
[7] = target: Serine/threonine-protein kinase B-raf (Homo sapiens, UniProt P15056); experiment: Inhibition of BRAF (unknown origin) by FRET assay
Sequence of Serine/threonine-protein kinase B-raf (P15056 whole entry): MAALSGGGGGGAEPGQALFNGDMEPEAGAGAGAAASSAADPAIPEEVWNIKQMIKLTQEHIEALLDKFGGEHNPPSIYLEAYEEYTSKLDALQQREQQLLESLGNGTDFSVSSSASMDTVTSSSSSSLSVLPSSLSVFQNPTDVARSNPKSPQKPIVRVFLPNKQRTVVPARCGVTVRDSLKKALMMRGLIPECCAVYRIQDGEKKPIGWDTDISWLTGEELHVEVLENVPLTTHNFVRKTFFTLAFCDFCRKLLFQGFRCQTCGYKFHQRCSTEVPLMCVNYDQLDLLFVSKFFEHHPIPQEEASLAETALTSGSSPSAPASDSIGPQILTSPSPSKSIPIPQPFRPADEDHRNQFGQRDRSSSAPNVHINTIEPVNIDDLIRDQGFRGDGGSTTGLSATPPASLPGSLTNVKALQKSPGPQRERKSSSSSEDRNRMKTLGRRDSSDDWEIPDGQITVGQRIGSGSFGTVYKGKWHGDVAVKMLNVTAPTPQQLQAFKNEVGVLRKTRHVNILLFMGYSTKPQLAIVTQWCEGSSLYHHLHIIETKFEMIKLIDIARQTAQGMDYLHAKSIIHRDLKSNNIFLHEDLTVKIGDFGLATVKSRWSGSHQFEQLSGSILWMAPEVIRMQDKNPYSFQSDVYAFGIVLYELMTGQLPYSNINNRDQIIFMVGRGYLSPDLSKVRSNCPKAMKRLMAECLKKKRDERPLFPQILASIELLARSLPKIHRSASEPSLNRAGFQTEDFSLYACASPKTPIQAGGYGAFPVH

[8] = Selectivity index, ratio of IC50 for CDK5 (unknown origin) to CDK1 (unknown origin)
[9] = target: T1, Tyrosine-protein kinase receptor UFO (Homo sapiens, UniProt P30530); experiment: Inhibition of AXL (unknown origin) by FRET assay
T1 sequence (P30530 whole entry): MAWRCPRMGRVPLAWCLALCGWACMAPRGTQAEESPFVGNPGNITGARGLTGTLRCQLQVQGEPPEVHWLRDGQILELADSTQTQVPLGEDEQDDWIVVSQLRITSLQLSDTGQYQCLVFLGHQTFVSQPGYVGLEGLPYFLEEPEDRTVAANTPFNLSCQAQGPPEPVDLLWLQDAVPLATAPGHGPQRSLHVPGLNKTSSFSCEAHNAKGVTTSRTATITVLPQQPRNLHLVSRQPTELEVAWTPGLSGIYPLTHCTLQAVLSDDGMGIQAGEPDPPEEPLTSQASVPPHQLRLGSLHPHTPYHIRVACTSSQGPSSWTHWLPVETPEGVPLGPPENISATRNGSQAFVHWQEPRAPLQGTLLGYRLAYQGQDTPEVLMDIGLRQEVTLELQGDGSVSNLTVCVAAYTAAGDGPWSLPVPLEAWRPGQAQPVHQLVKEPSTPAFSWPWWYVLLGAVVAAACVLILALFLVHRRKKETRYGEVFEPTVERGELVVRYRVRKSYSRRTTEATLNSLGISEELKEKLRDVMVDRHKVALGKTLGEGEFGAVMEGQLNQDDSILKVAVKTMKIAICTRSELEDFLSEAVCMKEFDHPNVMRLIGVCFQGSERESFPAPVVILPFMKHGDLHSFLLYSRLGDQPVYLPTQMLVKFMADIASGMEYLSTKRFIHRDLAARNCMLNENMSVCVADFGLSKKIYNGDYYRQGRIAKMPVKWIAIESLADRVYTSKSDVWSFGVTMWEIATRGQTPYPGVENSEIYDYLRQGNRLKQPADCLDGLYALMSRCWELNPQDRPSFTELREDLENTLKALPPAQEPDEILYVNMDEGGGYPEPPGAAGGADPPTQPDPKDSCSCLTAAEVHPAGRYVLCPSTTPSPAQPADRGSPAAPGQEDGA

[10] = target: Cyclin-dependent kinase 2 (Homo sapiens, UniProt P24941); experiment: Inhibition of CDK2 (unknown origin) by FRET assay
[11] = system: MCF7; experiment: Antiproliferative activity against human MCF7 cells assessed as growth inhibition incubated at 10 uM for 24 hrs by MTT assay relative to control; format: functional; conditions: read-out: GI
[12] = target: Cyclin-dependent kinase 1 (Homo sapiens, UniProt P06493); experiment: Inhibition of CDK1 (unknown origin) by FRET assay
Sequence of Cyclin-dependent kinase 1 (P06493 whole entry): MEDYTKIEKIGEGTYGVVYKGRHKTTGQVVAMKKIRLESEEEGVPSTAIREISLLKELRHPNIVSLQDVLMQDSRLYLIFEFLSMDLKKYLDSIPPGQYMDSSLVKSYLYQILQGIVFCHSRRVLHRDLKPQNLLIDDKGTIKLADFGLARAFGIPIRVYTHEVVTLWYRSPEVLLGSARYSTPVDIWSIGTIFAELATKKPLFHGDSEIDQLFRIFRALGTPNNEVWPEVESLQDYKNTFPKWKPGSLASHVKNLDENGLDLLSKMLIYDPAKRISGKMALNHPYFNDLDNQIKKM

[13] = target: Insulin-like growth factor 1 receptor (Homo sapiens, UniProt P08069); experiment: Inhibition of IGF1R (unknown origin) by FRET assay
Sequence of Insulin-like growth factor 1 receptor (P08069 31-736 limits assumed): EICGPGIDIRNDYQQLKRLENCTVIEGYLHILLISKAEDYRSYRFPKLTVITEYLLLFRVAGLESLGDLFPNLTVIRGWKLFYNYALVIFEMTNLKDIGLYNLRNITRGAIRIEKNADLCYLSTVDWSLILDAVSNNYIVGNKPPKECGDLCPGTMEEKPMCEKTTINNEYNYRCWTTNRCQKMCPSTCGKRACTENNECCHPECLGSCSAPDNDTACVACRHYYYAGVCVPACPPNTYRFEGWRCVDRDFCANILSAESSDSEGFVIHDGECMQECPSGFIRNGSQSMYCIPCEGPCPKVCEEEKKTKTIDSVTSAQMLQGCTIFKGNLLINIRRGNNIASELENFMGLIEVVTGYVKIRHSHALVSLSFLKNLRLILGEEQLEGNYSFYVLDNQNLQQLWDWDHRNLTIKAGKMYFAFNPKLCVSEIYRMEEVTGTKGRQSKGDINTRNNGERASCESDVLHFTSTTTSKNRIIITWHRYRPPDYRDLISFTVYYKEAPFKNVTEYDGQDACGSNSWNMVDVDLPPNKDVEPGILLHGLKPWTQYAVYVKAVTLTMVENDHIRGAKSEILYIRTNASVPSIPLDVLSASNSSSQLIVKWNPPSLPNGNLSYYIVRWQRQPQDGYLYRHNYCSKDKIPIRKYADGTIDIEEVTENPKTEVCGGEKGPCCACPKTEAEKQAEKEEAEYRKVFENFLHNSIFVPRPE
Sequence of Insulin-like growth factor 1 receptor (P08069 741-1367 limits assumed): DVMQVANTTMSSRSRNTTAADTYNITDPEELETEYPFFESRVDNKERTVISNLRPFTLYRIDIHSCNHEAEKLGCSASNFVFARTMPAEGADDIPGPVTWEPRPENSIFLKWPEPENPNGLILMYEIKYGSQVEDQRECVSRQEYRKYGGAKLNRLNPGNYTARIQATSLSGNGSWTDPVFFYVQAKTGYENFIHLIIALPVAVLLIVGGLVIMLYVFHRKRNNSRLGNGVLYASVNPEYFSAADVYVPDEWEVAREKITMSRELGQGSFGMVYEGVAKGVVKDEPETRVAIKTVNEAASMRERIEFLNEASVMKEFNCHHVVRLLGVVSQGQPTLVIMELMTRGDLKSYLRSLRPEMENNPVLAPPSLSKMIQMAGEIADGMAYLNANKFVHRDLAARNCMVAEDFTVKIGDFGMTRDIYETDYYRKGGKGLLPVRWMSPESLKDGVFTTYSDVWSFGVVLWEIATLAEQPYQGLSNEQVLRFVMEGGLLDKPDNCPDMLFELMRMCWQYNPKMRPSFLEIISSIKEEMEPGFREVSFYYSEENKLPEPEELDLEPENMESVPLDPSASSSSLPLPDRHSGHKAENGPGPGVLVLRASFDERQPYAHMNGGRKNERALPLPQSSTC

[14] = Selectivity index, ratio of IC50 for CDK2 (unknown origin) to CDK1 (unknown origin)
[15] = target: Protein-tyrosine kinase 2-beta (Homo sapiens, UniProt Q14289); experiment: Inhibition of PTK2B (unknown origin) by FRET assay
Sequence of Protein-tyrosine kinase 2-beta (Q14289 whole entry): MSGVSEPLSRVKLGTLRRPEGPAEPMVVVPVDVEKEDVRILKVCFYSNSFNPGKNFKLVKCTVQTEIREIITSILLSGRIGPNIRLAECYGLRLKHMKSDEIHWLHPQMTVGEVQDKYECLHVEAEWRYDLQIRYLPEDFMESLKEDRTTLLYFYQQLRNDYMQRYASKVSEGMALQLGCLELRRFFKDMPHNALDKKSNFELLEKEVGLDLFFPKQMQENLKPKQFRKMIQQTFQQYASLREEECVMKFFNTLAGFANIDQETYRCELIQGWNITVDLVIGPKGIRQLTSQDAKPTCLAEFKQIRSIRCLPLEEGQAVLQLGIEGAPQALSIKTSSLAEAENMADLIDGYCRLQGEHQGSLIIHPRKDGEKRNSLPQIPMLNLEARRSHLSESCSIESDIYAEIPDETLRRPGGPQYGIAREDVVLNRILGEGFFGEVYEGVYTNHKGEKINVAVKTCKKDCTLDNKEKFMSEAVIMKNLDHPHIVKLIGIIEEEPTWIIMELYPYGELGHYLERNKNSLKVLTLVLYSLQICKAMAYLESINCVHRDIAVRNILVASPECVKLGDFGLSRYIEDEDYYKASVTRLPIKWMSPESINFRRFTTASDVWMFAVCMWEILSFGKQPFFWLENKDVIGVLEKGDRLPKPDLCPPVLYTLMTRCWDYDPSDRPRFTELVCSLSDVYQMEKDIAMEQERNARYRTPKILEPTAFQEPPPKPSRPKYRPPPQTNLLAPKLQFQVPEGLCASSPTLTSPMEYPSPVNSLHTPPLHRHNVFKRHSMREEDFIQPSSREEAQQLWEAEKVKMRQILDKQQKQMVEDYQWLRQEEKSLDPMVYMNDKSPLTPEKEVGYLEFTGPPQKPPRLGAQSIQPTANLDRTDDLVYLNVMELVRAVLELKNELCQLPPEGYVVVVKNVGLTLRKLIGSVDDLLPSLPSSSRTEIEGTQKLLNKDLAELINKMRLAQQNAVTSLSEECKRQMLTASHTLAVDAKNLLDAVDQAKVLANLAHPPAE

[16] = system: T84; experiment: Antiproliferative activity against human T84 cells assessed as growth inhibition incubated at 10 uM for 24 hrs by MTT assay relative to control; format: functional; conditions: read-out: GI
[17] = system: MOLT-4; experiment: Antiproliferative activity against human MOLT-4 cells assessed as growth inhibition incubated at 10 uM for 24 hrs by MTT assay relative to control; format: functional; conditions: read-out: GI
[18] = Antiproliferative activity against human MDA-PATC53 cells assessed as growth inhibition incubated at 10 uM for 24 hrs by MTT assay relative to control; format: functional; conditions: read-out: GI
[19] = target: Tyrosine-protein kinase JAK1 (Homo sapiens, UniProt P23458); experiment: Inhibition of JAK1 (unknown origin) by FRET assay
Sequence of Tyrosine-protein kinase JAK1 (P23458 whole entry): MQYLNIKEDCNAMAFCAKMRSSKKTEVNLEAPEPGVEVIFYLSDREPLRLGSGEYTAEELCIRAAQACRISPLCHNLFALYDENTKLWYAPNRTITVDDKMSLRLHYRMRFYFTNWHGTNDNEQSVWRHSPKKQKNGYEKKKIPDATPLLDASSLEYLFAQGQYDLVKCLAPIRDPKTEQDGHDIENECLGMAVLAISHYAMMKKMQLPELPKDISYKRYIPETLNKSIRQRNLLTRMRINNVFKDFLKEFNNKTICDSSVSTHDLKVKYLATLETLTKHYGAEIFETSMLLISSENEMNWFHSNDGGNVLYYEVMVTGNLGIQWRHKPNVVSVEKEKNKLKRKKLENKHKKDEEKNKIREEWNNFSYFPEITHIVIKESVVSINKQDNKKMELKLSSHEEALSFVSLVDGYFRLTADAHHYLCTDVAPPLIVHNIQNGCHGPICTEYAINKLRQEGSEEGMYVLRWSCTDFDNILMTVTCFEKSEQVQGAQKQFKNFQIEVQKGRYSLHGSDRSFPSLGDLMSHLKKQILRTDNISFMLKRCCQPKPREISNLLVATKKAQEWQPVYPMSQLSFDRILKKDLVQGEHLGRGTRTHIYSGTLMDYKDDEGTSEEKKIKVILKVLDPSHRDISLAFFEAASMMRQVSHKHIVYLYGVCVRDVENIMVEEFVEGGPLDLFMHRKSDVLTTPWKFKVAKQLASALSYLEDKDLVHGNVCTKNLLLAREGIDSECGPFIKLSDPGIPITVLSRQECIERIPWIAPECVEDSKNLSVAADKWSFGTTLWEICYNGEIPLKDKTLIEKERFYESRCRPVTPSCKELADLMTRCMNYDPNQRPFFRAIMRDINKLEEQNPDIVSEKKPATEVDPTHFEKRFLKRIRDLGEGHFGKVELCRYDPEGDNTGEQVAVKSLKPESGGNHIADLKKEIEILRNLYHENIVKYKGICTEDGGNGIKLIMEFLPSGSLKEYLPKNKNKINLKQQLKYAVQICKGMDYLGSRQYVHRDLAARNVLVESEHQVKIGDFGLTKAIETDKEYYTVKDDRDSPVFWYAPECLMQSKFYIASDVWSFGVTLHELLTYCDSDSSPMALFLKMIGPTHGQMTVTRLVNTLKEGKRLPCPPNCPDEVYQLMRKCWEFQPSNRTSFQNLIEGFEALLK

[20] = Antiproliferative activity against human PL45 cells assessed as growth inhibition incubated for 24 hrs by MTT assay; format: functional, cell-based; conditions: PL45, 24 h
[21] = system: SK-MEL-1; experiment: Antiproliferative activity against human SK-MEL-1 cells assessed as growth inhibition incubated at 10 uM for 24 hrs by MTT assay relative to control; format: functional; conditions: read-out: GI
[22] = system: KG-1; experiment: Antiproliferative activity against human KG-1 cells assessed as growth inhibition incubated at 10 uM for 24 hrs by MTT assay relative to control; format: functional; conditions: read-out: GI
[23] = Antiproliferative activity against human MDA-PATC53 cells assessed as growth inhibition incubated for 24 hrs by MTT assay; format: functional, cell-based; conditions: MDA-PATC53, 24 h
[24] = system: BT-549; experiment: Antiproliferative activity against human BT-549 cells assessed as growth inhibition incubated at 10 uM for 24 hrs by MTT assay relative to control; format: functional; conditions: read-out: GI

SMILES	pIC50 [3]	IC50 [4]	pIC50 [7]	Ratio IC50 [8]	pIC50 [9]	pIC50 [10]	pIC50 [12]	pIC50 [13]	Ratio IC50 [14]	pIC50 [15]	pIC50 [19]	inhibition of growth at 10 µM [1]	inhibition of growth at 10 µM [2]	inhibition of growth at 10 µM [5]	inhibition of growth at 10 µM [6]	inhibition of growth at 10 µM [11]	inhibition of growth at 10 µM [16]	inhibition of growth at 10 µM [17]	inhibition of growth at 10 µM [18]	pIC50 [20]	further results
COc1ccc(Cc2nnc(N3CCN(C(=S)Nc4ccccc4)CC3)c3ccccc23)cc1	6.00	7953 nM	5.32	11.7	5.93	6.28	7.07	5.61	6.16	5.84	5.45	17%	4.21%	16.9%	42.3%	14%	7.38%	28.7%	76.2%	4.87	inhibition of growth at 10 µM [21]: 11.4%; inhibition of growth at 10 µM [22]: 13.9%; pIC50 [23]: 5.69; inhibition of growth at 10 µM [24]: 13.2%
COc1ccc(Cc2nnc(N3CCN(C(=O)Nc4ccc(OC)cc4)CC3)c3ccccc23)cc1	6.85	3512 nM	5.43	2.7	5.32	6.46	7.28	6.06	6.63	5.32	5.80	25.8%	49%	32.1%	66.1%	24.2%	57.5%	25.4%	73.1%	5.29	inhibition of growth at 10 µM [21]: 39%; inhibition of growth at 10 µM [22]: 0.31%; pIC50 [23]: 5.39; inhibition of growth at 10 µM [24]: 50.3%
COc1cccc(NC(=S)N2CCN(c3nnc(Cc4ccccc4)c4ccccc34)CC2)c1	6.15	3853 nM	5.41	7.98	5.10	6.37	7.05	5.95	4.82	5.35	5.45	60.1%	31.2%	60.2%	66%	34.2%	49.7%	31.2%	76.3%	5.24	inhibition of growth at 10 µM [21]: 49.3%; inhibition of growth at 10 µM [22]: 28.5%; pIC50 [23]: 5.41; inhibition of growth at 10 µM [24]: 52.1%
COc1ccc(Cc2nnc(N3CCN(C(=O)Nc4ccccc4)CC3)c3ccccc23)cc1	6.22	2628 nM	5.32	7.22	5.63	6.29	7.08	5.27	6.19	5.24	5.69	36.1%	29.8%	51.3%	73.6%	33.4%	53.6%	27.8%	46.3%	5.53	inhibition of growth at 10 µM [21]: 27.1%; inhibition of growth at 10 µM [22]: 49.7%; pIC50 [23]: 4.95; inhibition of growth at 10 µM [24]: 56%
COc1ccc(Cc2nnc(N3CCN(C(=S)Nc4ccc(OC)cc4)CC3)c3ccccc23)cc1	6.34	3566 nM	5.52	5.36	5.07	6.40	7.07	5.25	4.7	5.44	5.81	47.9%	58.3%	51.7%	83.5%	73.1%	19.3%	31.4%	66.4%	5.68	inhibition of growth at 10 µM [21]: 29.4%; inhibition of growth at 10 µM [22]: 23.9%; pIC50 [23]: 5.18; inhibition of growth at 10 µM [24]: 23.7%
O=C(Nc1ccc(Cl)c(C(F)(F)F)c1)N1CCN(c2nnc(Cc3ccccc3)c3ccccc23)CC1	6.39	8565 nM	5.83	3.91	5.16	6.14	6.98	5.37	6.97	5.57	5.29	9.17%	2.47%	18.9%	42.4%	2.2%	4.71%	5.22%	55.4%	4.88	inhibition of growth at 10 µM [21]: 3.34%; inhibition of growth at 10 µM [22]: 1.35%; pIC50 [23]: 5.07; inhibition of growth at 10 µM [24]: 1.08%

The next lines start with results.

pIC50 [3]	IC50 [4]	pIC50 [7]	Ratio IC50 [8]	pIC50 [9]	pIC50 [10]	pIC50 [12]	pIC50 [13]	Ratio IC50 [14]	pIC50 [15]	pIC50 [19]	SMILES	inhibition of growth at 10 µM [1]	inhibition of growth at 10 µM [2]	inhibition of growth at 10 µM [5]	inhibition of growth at 10 µM [6]	inhibition of growth at 10 µM [11]	inhibition of growth at 10 µM [16]	inhibition of growth at 10 µM [17]	inhibition of growth at 10 µM [18]	pIC50 [20]	further results
6.02	2507 nM	5.06	13.5	5.90	6.62	7.15	5.62	3.42	5.28	5.30	S=C(Nc1ccccc1)N1CCN(c2nnc(Cc3ccccc3)c3ccccc23)CC1	38.2%	58.9%	20.7%	78.4%	64.6%	56%	43%	85.2%	5.60	inhibition of growth at 10 µM [21]: 50.9%; inhibition of growth at 10 µM [22]: 61.9%; pIC50 [23]: 5.79; inhibition of growth at 10 µM [24]: 42.1%
6.80	2579 nM	5.03	2.95	5.12	6.54	7.27	5.89	5.31	5.60	5.44	O=C(Nc1ccccc1)N1CCN(c2nnc(Cc3ccccc3)c3ccccc23)CC1	62%	23.8%	36.2%	87.4%	18.4%	63.1%	41%	77.9%	5.78	inhibition of growth at 10 µM [21]: 49.7%; inhibition of growth at 10 µM [22]: 29.7%; pIC50 [23]: 5.53; inhibition of growth at 10 µM [24]: 76.5%
